Test results published in paper PMC12757379 (Frontiers in Pharmacology, 2025).
pKd: −log10 of the molar value.

Tests used:
[1] = target: T1, farnesoid X receptor (FXR) (Homo sapiens, UniProt Q96RI1); assay: retention of standard on immobilized-FXR affinity column ([…]D biochromatography); format: binding
T1 construct: gene NR1H4; human FXR protein (His Tag; Cat: 17624-H07E)
T1 sequence (Q96RI1 1-486): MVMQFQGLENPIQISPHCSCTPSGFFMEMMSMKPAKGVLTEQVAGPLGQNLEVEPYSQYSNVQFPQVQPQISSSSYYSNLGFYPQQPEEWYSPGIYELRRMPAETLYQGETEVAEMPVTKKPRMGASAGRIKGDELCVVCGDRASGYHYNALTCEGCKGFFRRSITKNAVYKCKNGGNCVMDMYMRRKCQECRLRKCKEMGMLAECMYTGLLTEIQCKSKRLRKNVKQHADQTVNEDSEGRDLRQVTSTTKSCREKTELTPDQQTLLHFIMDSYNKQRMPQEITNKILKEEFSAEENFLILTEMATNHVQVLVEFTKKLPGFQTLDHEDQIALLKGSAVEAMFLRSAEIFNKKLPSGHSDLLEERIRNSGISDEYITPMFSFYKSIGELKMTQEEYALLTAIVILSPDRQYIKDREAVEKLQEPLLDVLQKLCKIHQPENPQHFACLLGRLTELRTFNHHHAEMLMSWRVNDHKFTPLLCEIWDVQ

[2] = target: T1, farnesoid X receptor (FXR); assay: SPR (Biacore T200); also frontal affinity chromatography KD […]; format: binding

Row | SMILES | retention of standard on immobilized-FXR affinity column (2D biochromatography) [1] | pKd [2]
1 | O=C1c2cccc(O)c2C(=O)c2c(O)cc(CO)cc21 [aloe-emodin] | emodin, physcion, aloe-emodin, and TSG exhibited distinct retentions, thereby confirming their strong binding affinities for FXR | 
2 | COc1cc(O)c2c(c1)C(=O)c1cc(C)cc(O)c1C2=O [physcion] |  | 4.52
